Columns and labels:
[1] = LOO. scavenging ability, liposome-AAPH system (AAPH stimulation), NBD-TEEPO fluorescence; type: biochemical; parameters: key: activity = 1 − (FluSample−FluBackground)/(FluControl−FluBackground); conditions: test compound 10 μmol/l, AAPH 20 mmol/l, liposomes, 37° C., after 40 minutes
From the text: As described above, the compound of the present invention has peroxyl radical scavenging ability. “Peroxyl radical scavenging ability” in the present invention means the ability to scavenge LOO., for example. The LOO. scavenging ability can be evaluated on the basis of its activity value, for example. The activity value of the LOO. scavenging ability can be evaluated using, for example, the liposome-AAPH (2,2′-azobis(2-amidinopropane)dihydrochloride) system disclosed in WO 2019/009355. More specifically, it can be measured in a manner described in Example 1 below. As a specific example, the activity value of the LOO. scavenging ability can be measured by performing the following steps (vi) to (x): • (vi) preparing a buffer solution containing a compound represented by the formula (A) and liposomes; • (vii) adding 2,2′-azobis(2-amidinopropane)dihydrochloride; • (viii) adding a test compound; • […] measuring a fluorescence; and • (x) determining the activity value of the test compound as per the following equation using the result of the fluorescence measurement.
Activity value of LOO. scavenging ability=1−(FluSample−FluBackground)/(FluControl−FluBackground)
Flusampie: the fluorescence intensity measured in the presence of AAPH and the test compound (n=1)
FluBackground: the fluorescence intensity measured in the absence of AAPH
FluControl: the fluorescence intensity measured in the presence of AAPH and in the absence of the test compound
In step (vi), the concentration of the compound represented by the formula (A) is, for example, 1 to 20 μmol/l and typically 5 μmol/l. The liposomes are prepared from, for example, egg-yolk phosphatidylcholine and dihexadecyl hydrogen phosphate. The concentration of the egg-yolk phosphatidylcholine is, for example, 5 to 10 mg/ml and typically 2.5 mg/ml. The concentration of the dihexadecyl hydrogen phosphate is, for example, 0.01 to 1 mg/ml and typically 0.1 mg/ml.
In step (vii), the concentration of AAPH is, for example, 5 to 50 mmol/l and typically 20 mmol/l.
In step (viii), the concentration of the test compound is 5 to 100 μmol/l. A specific example of the concentration is 10 μmol/l.
In step (ix), the wavelength of excitation light at the time of measuring the fluorescence can be set to, for example, 470 nm; the fluorescence wavelength can be set to, for example, 530 nm; and the fluorescence intensity at 530 nm can be measured. The measurement of the fluorescence is performed, for example, after 1 to 120 minutes has elapsed and typically after 30 to 40 minutes has elapsed since step (viii).
The following solutions were prepared: a solution A containing liposomes (10 mg/ml Egg PC, 0.4 mg/ml DCP) and NBD-TEEPO compound (20 μmol/l) in phosphate buffer (10 mmol/l, pH 7.4, 2.0% acetonitrile); and a solution B containing 80 mmol/l AAPH in phosphate buffer (10 mmol/l, pH 7.4). A 10 μl aliquot of each of the solutions A and B was dispensed using a Multidrop Combi, and these aliquots were mixed together. The final concentrations of the respective components in the phosphate buffer (10 mmol/l, pH 7.4, 0.5% acetonitrile, 1% DMSO) were as follows: the liposomes (2.5 mg/ml Egg PC, 0.1 mg/ml DCP), the NBD-TEEPO compound (5.0 μmol/l), each of the test compounds (10 μmol/l), and AAPH (20 mmol/l).
While incubating the thus-obtained mixture at 37° C., the fluorescence intensity was measured after 40 minutes had elapsed since the mixing of the components. The fluorescence intensity was measured at an excitation wavelength of 470 nm and a fluorescence wavelength of 530 nm. Then, on the basis of the thus-measured fluorescence intensities, the activity value of the LOO. scavenging ability was calculated as per the above-described equation.

[2] = LO. scavenging ability, liposome-Fe2+ system (Fe stimulation), NBD-TEEPO fluorescence; type: biochemical; conditions: for R/L: ratio of activity value (R) of LO. scavenging ability to activity value (L) of LOO. scavenging ability / Fe stimulation (R): activity value of LO. scavenging ability: test compound 10 μmol/l; for Fe stimulation (R): activity value of LO. scavenging ability: FeSO4 1.0 mmol/l, liposomes, 37° C., 180 minutes, 1−(AUCSample/AUCControl)
From the text: As described above, the compound of the present invention has alkoxyl radical scavenging ability. The “alkoxyl radical scavenging ability” in the present invention means the ability to scavenge LO., for example. The LO. scavenging ability can be evaluated on the basis of its activity value, for example. The activity value of the LO. scavenging ability can be evaluated, for example, using the liposome-Fe^2+ system disclosed in WO 2019/009355. More specifically, it can be measured in a manner described in Example 1 below. As a specific example, the activity value of the LO. scavenging ability can be measured by performing the following steps (i) to (v): • (i) preparing a buffer solution containing a compound represented by the formula (A) and liposomes; • (ii) adding a divalent iron ion source material; • (iii) adding a test compound; • […] measuring a fluorescence; and • (v) determining the activity value of the test compound as per the following equation using the result of the fluorescence measurement.
Activity value of LO. scavenging ability=1−(AUCSample/AUCControl)
AUCSample: the area under the curve calculated from the fluorescence intensity measured in the presence of Fe^2+ and the test compound (n=1)
AUCControl: the area under the curve calculated from the fluorescence intensity measured in the presence of Fe^2+ and in the absence of the test compound
In step (i), the concentration of the compound represented by the formula (A) is, for example, 1 to 20 μmol/l and typically 5 μmol/l. The liposomes are prepared from, for example, egg-yolk phosphatidylcholine (Egg PC) and dihexadecyl hydrogen phosphate (DCP). The concentration of the egg-yolk phosphatidylcholine is, for example, 5 to 10 mg/ml and typically […]. The concentration of the dihexadecyl hydrogen phosphate is, for example, 0.01 to 1 mg/ml and typically 0.1 mg/ml.
In step (ii), the concentration of the divalent iron ion source material is, for example, 0.5 to 5 mmol/l and typically 1 mmol/l. The divalent iron ion source material is, for example, iron(II) sulfate.
In step (iii), the concentration of the test compound is 5 to 100 μmol/l. A specific example of the concentration is 10 μmol/l.
In step (iv), the wavelength of excitation light at the time of measuring the fluorescence can be set to, for example, 470 nm; the fluorescence wavelength can be set to, for example, 530 nm; and the fluorescence intensity at 530 nm can be measured. The period for measuring the fluorescence is, for example, from 0 to 240 minutes at intervals of 0.1 to 5 minutes and typically 180 minutes at intervals of 3 minutes, with step (iii) being the start time, for example.
The following solutions were prepared: a solution A containing liposomes (10 mg/ml Egg PC, 0.4 mg/ml DCP) and 20 μmol/l NBD-TEEPO compound (compound represented by the formula (A)) in phosphate buffer (10 mmol/l, pH 7.4, 2.0% acetonitrile); and a solution B containing 4.0 mmol/l FeSO4 in distilled water. A 10 μl aliquot of each of the solutions A and B was dispensed using a Multidrop Combi (Thermo Fisher Scientific), and these aliquots were mixed together. The final concentrations of the respective components in the phosphate buffer (10 mmol/l, pH 7.4, 0.5% acetonitrile, 1% dimethyl sulfoxide (DMSO)) were as follows: the liposomes (2.5 mg/ml Egg PC, 0.1 mg/ml DCP), the NBD-TEEPO compound (5.0 μmol/l), a test compound (10 μmol/l), and FeSO4 (1.0 mmol/l). As the test compound, the compounds represented by the formulae (3) to (5) and (7) to (10) were used as compounds of examples, the compound (methyldopa) represented by the formula (1a) was used as a compound of a comparative example, and edaravone and a SCREEN-WELL® FDA-approved drug library (Enzo Life Sciences) were used as reference examples. The test compounds were dissolved in DMSO. […]

SMILES | AAPH stimulation (L): activity value of LOO. scavenging ability [1] | R/L: ratio of activity value (R) of LO. scavenging ability to activity value (L) of LOO. scavenging ability [2] | Fe stimulation (R): activity value of LO. scavenging ability [2] | balance between the LO. scavenging ability and the LOO. scavenging ability (result in words) [2]
CCOC(=O)[C@@](C)(N)Cc1ccc(O)c(O)c1 [(10)] | 0.663 | 0.78 | 0.517 | –
CC(C)COC(=O)[C@@](C)(N)Cc1ccc(O)c(O)c1 [Formula (5), isobutyl (S)-2-amino-3-(3,4-dihydroxyphenyl)-2-methylpropanoate] | 0.452 | 1.19 | 0.539 | –
CCCCOC(=O)[C@@](C)(N)Cc1ccc(O)c(O)c1 [Formula (9), butyl (S)-2-amino-3-(3,4-dihydroxyphenyl)-2-methylpropanoate] | 0.301 | 1.04 | 0.313 | –
CC1=NN(c2ccccc2)C(=O)C1 [Edaravone, 5-methyl-2-phenyl-2,4-dihydro-3H-pyrazol-3-one, reference compound] | 0.293 | 0.98 | 0.288 | approximately the same level of scavenging ability against LO. and LOO.
CCCOC(=O)[C@@](C)(N)Cc1ccc(O)c(O)c1 [Formula (7), propyl (S)-2-amino-3-(3,4-dihydroxyphenyl)-2-methylpropanoate] | 0.517 | 0.88 | 0.454 | –
CCC(C)OC(=O)[C@@](C)(N)Cc1ccc(O)c(O)c1 (stereo partly drawn) [Formula (3), s-butyl (2S)-2-amino-3-(3,4-dihydroxyphenyl)-2-methylpropanoate] | 0.726 | 1.04 | 0.754 | –
CC(C)(C)OC(=O)[C@@](C)(N)Cc1ccc(O)c(O)c1 [Formula (4), t-butyl (S)-2-amino-3-(3,4-dihydroxyphenyl)-2-methylpropanoate] | 0.610 | 1.07 | 0.654 | –
CC(C)OC(=O)[C@@](C)(N)Cc1ccc(O)c(O)c1 [Formula (8), isopropyl (S)-2-amino-3-(3,4-dihydroxyphenyl)-2-methylpropanoate] | 0.346 | 0.95 | 0.327 | –

Source: patent publication US20230109489A1, “Compound and Use Thereof” (FELIQS CORPORATION, priority 2020, published 2023)
